Measured values published in patent US11077090B2, “Compounds and compositions and uses thereof” (Sunovion Pharmaceuticals Inc., priority 2016, dated 2021).
Structures can show the parent of a compound that is named as a salt. Where two headings read alike, the source gives them in different places.

System: compound-treated mice
Test: Neuropharmacological assay (SmartCube): behavioral activity signature and minimal effective dose
Type: in vivo
Conditions: for minimal effective dose: Mus musculus, ip, MED = dose having 50% or more total activity; for AD: ADHD (probability of activity signature) / AG: analgesic (probability of activity signature) / AX: anxiolytic (probability of activity signature) / CE: cognitive enhancer (probability of activity signature) / DP: anti-depressant (probability of activity signature) / MS: mood stabilizer (probability of activity signature) / PS: anti-psychotic (probability of activity signature) / SD: sedative hypnotic (probability of activity signature) / UN: uncharacterized CNS activity (probability of activity signature): i.p. 15 min before test, most efficacious dose(s)
Procedure, shortened: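 Video-recorded behavior is compared algorithmically against a reference-compound database, yielding class probabilities (best dose reported). Compounds given i.p. in NMP/PEG/propylene glycol 15 min pre-test at 3 doses; potency as MED, the dose (mpk, range usually 0.3–30) reaching ≥50% total activity.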

[1] = read-out: Potency: minimal effective dose (MED), binned
[2] = read-out: Potency: minimal effective dose (MED)

SMILES: CC[C@H]1OCc2cccc(Cl)c2[C@@H]1N.Cl (single isomer, unassigned) [Example 209]
- minimal effective dose [1]: 3 to 10 mg/kg
- AD: ADHD (probability of activity signature): + (LOQ ≤ + <5%)
- AG: analgesic (probability of activity signature): +++ (25% ≤ +++ <50%)
- AX: anxiolytic (probability of activity signature): ++ (5% ≤ ++ <25%)
- CE: cognitive enhancer (probability of activity signature): ++ (5% ≤ ++ <25%)
- DP: anti-depressant (probability of activity signature): ++ (5% ≤ ++ <25%)
- MS: mood stabilizer (probability of activity signature): + (LOQ ≤ + <5%)
- PS: anti-psychotic (probability of activity signature): ++ (5% ≤ ++ <25%)
- SD: sedative hypnotic (probability of activity signature): ++ (5% ≤ ++ <25%)
- UN: uncharacterized CNS activity (probability of activity signature): +++ (25% ≤ +++ <50%)

SMILES: C[C@@H]1OCc2cc(F)ccc2[C@@H]1N.Cl (single isomer, unassigned) [Example 212]
- minimal effective dose [1]: 10 to 30 mg/kg
- AD: ADHD (probability of activity signature): + (LOQ ≤ + <5%)
- AG: analgesic (probability of activity signature): ++ (5% ≤ ++ <25%)
- AX: anxiolytic (probability of activity signature): ++ (5% ≤ ++ <25%)
- CE: cognitive enhancer (probability of activity signature): + (LOQ ≤ + <5%)
- DP: anti-depressant (probability of activity signature): + (LOQ ≤ + <5%)
- MS: mood stabilizer (probability of activity signature): + (LOQ ≤ + <5%)
- PS: anti-psychotic (probability of activity signature): + (LOQ ≤ + <5%)
- SD: sedative hypnotic (probability of activity signature): + (LOQ ≤ + <5%)
- UN: uncharacterized CNS activity (probability of activity signature): ++++ (50% ≤ ++++)

SMILES: C[C@H]1OCc2cc(F)ccc2[C@@H]1N.Cl (single isomer, unassigned) [Example 213]
- minimal effective dose [1]: 3 to 10 mg/kg
- AD: ADHD (probability of activity signature): + (LOQ ≤ + <5%)
- AG: analgesic (probability of activity signature): ++ (5% ≤ ++ <25%)
- AX: anxiolytic (probability of activity signature): ++ (5% ≤ ++ <25%)
- CE: cognitive enhancer (probability of activity signature): ++ (5% ≤ ++ <25%)
- DP: anti-depressant (probability of activity signature): ++ (5% ≤ ++ <25%)
- MS: mood stabilizer (probability of activity signature): + (LOQ ≤ + <5%)
- PS: anti-psychotic (probability of activity signature): ++ (5% ≤ ++ <25%)
- SD: sedative hypnotic (probability of activity signature): + (LOQ ≤ + <5%)
- UN: uncharacterized CNS activity (probability of activity signature): +++ (25% ≤ +++ <50%)

SMILES: CC[C@@H]1OCc2cccc(Cl)c2[C@@H]1N (single isomer, unassigned) [Example 218]
- minimal effective dose [1]: < 3 mg/kg
- AD: ADHD (probability of activity signature): + (LOQ ≤ + <5%)
- AG: analgesic (probability of activity signature): + (LOQ ≤ + <5%)
- AX: anxiolytic (probability of activity signature): ++ (5% ≤ ++ <25%)
- CE: cognitive enhancer (probability of activity signature): ++ (5% ≤ ++ <25%)
- DP: anti-depressant (probability of activity signature): + (LOQ ≤ + <5%)
- MS: mood stabilizer (probability of activity signature): + (LOQ ≤ + <5%)
- PS: anti-psychotic (probability of activity signature): ++ (5% ≤ ++ <25%)
- SD: sedative hypnotic (probability of activity signature): + (LOQ ≤ + <5%)
- UN: uncharacterized CNS activity (probability of activity signature): ++++ (50% ≤ ++++)

SMILES: CCC[C@H]1OCc2ccccc2[C@@H]1N (single isomer, unassigned) [Example 251]
- minimal effective dose [1]: 3 to 10 mg/kg
- AD: ADHD (probability of activity signature): ++ (5% ≤ ++ <25%)
- AG: analgesic (probability of activity signature): + (LOQ ≤ + <5%)
- AX: anxiolytic (probability of activity signature): ++ (5% ≤ ++ <25%)
- CE: cognitive enhancer (probability of activity signature): + (LOQ ≤ + <5%)
- DP: anti-depressant (probability of activity signature): + (LOQ ≤ + <5%)
- MS: mood stabilizer (probability of activity signature): ++ (5% ≤ ++ <25%)
- PS: anti-psychotic (probability of activity signature): ++ (5% ≤ ++ <25%)
- SD: sedative hypnotic (probability of activity signature): ++ (5% ≤ ++ <25%)
- UN: uncharacterized CNS activity (probability of activity signature): ++ (5% ≤ ++ <25%)

SMILES: Cc1cccc2c1[C@@H](C)OC[C@H]2N (single isomer, unassigned) [Example 254]
- minimal effective dose [1]: 3 to 10 mg/kg
- AD: ADHD (probability of activity signature): + (LOQ ≤ + <5%)
- AG: analgesic (probability of activity signature): + (LOQ ≤ + <5%)
- AX: anxiolytic (probability of activity signature): + (LOQ ≤ + <5%)
- CE: cognitive enhancer (probability of activity signature): + (LOQ ≤ + <5%)
- DP: anti-depressant (probability of activity signature): + (LOQ ≤ + <5%)
- MS: mood stabilizer (probability of activity signature): + (LOQ ≤ + <5%)
- PS: anti-psychotic (probability of activity signature): + (LOQ ≤ + <5%)
- SD: sedative hypnotic (probability of activity signature): ++ (5% ≤ ++ <25%)
- UN: uncharacterized CNS activity (probability of activity signature): ++ (5% ≤ ++ <25%)

SMILES: CC[C@@H]1OCc2ccccc2[C@@H]1N(C)C.Cl (single isomer, unassigned) [Example 260]
- minimal effective dose [1]: 3 to 10 mg/kg
- AD: ADHD (probability of activity signature): ++ (5% ≤ ++ <25%)
- AG: analgesic (probability of activity signature): + (LOQ ≤ + <5%)
- AX: anxiolytic (probability of activity signature): + (LOQ ≤ + <5%)
- CE: cognitive enhancer (probability of activity signature): + (LOQ ≤ + <5%)
- DP: anti-depressant (probability of activity signature): + (LOQ ≤ + <5%)
- MS: mood stabilizer (probability of activity signature): ++ (5% ≤ ++ <25%)
- PS: anti-psychotic (probability of activity signature): + (LOQ ≤ + <5%)
- SD: sedative hypnotic (probability of activity signature): ++ (5% ≤ ++ <25%)
- UN: uncharacterized CNS activity (probability of activity signature): + (LOQ ≤ + <5%)

SMILES: CC[C@H]1OCc2ccccc2[C@@H]1N(C)C.Cl (single isomer, unassigned) [Example 261]
- minimal effective dose [1]: 10 to 30 mg/kg
- AD: ADHD (probability of activity signature): ++ (5% ≤ ++ <25%)
- AG: analgesic (probability of activity signature): + (LOQ ≤ + <5%)
- AX: anxiolytic (probability of activity signature): + (LOQ ≤ + <5%)
- CE: cognitive enhancer (probability of activity signature): + (LOQ ≤ + <5%)
- DP: anti-depressant (probability of activity signature): ++++ (50% ≤ ++++)
- MS: mood stabilizer (probability of activity signature): + (LOQ ≤ + <5%)
- PS: anti-psychotic (probability of activity signature): + (LOQ ≤ + <5%)
- SD: sedative hypnotic (probability of activity signature): ++ (5% ≤ ++ <25%)
- UN: uncharacterized CNS activity (probability of activity signature): ++ (5% ≤ ++ <25%)

SMILES: Cl.N[C@H]1c2ccccc2CO[C@@H]1CF (single isomer, unassigned) [Example 276, cis-3-(fluoromethyl)isochroman-4-amine hydrochloride]
- minimal effective dose [1]: 3 to 10 mg/kg
- AD: ADHD (probability of activity signature): + (LOQ ≤ + <5%)
- AG: analgesic (probability of activity signature): + (LOQ ≤ + <5%)
- AX: anxiolytic (probability of activity signature): + (LOQ ≤ + <5%)
- CE: cognitive enhancer (probability of activity signature): + (LOQ ≤ + <5%)
- DP: anti-depressant (probability of activity signature): + (LOQ ≤ + <5%)
- MS: mood stabilizer (probability of activity signature): ++ (5% ≤ ++ <25%)
- PS: anti-psychotic (probability of activity signature): + (LOQ ≤ + <5%)
- SD: sedative hypnotic (probability of activity signature): ++ (5% ≤ ++ <25%)
- UN: uncharacterized CNS activity (probability of activity signature): + (LOQ ≤ + <5%)

SMILES: C[C@@H]1OC[C@@H](N(C)C)c2ccccc21 (stereo in doubt) [Example 239, cis-N,N,1-trimethylisochroman-4-amine hydrochloride]
- minimal effective dose [1]: 3 to 10 mg/kg
- AD: ADHD (probability of activity signature): ++ (5% ≤ ++ <25%)
- AG: analgesic (probability of activity signature): ++ (5% ≤ ++ <25%)
- AX: anxiolytic (probability of activity signature): ++ (5% ≤ ++ <25%)
- CE: cognitive enhancer (probability of activity signature): ++ (5% ≤ ++ <25%)
- DP: anti-depressant (probability of activity signature): ++ (5% ≤ ++ <25%)
- MS: mood stabilizer (probability of activity signature): + (LOQ ≤ + <5%)
- PS: anti-psychotic (probability of activity signature): ++ (5% ≤ ++ <25%)
- SD: sedative hypnotic (probability of activity signature): + (LOQ ≤ + <5%)
- UN: uncharacterized CNS activity (probability of activity signature): +++ (25% ≤ +++ <50%)

SMILES: Cl.NC1COCc2ccc(Cl)cc21 (centres unmarked) [Example 1, 6-Chloroisochroman-4-amine hydrochloride]
- minimal effective dose [2]: 10 to 30 mg/kg
- AD: ADHD (probability of activity signature): + (LOQ ≤ + <5%)
- AG: analgesic (probability of activity signature): ++ (5% ≤ ++ <25%)
- AX: anxiolytic (probability of activity signature): ++ (5% ≤ ++ <25%)
- CE: cognitive enhancer (probability of activity signature): ++ (5% ≤ ++ <25%)
- DP: anti-depressant (probability of activity signature): + (LOQ ≤ + <5%)
- MS: mood stabilizer (probability of activity signature): + (LOQ ≤ + <5%)
- PS: anti-psychotic (probability of activity signature): ++ (5% ≤ ++ <25%)
- SD: sedative hypnotic (probability of activity signature): ++ (5% ≤ ++ <25%)
- UN: uncharacterized CNS activity (probability of activity signature): ++ (5% ≤ ++ <25%)

SMILES: Cl.NC1COCc2cc(Cl)ccc21 (centres unmarked) [Example 2]
- minimal effective dose [2]: 10 to 30 mg/kg
- AD: ADHD (probability of activity signature): + (LOQ ≤ + <5%)
- AG: analgesic (probability of activity signature): ++ (5% ≤ ++ <25%)
- AX: anxiolytic (probability of activity signature): ++ (5% ≤ ++ <25%)
- CE: cognitive enhancer (probability of activity signature): + (LOQ ≤ + <5%)
- DP: anti-depressant (probability of activity signature): + (LOQ ≤ + <5%)
- MS: mood stabilizer (probability of activity signature): + (LOQ ≤ + <5%)
- PS: anti-psychotic (probability of activity signature): + (LOQ ≤ + <5%)
- SD: sedative hypnotic (probability of activity signature): + (LOQ ≤ + <5%)
- UN: uncharacterized CNS activity (probability of activity signature): +++ (25% ≤ +++ <50%)

SMILES: Cl.NC1COCc2cc(F)ccc21 (centres unmarked) [Example 3]
- minimal effective dose [2]: 10 to 30 mg/kg
- AD: ADHD (probability of activity signature): + (LOQ ≤ + <5%)
- AG: analgesic (probability of activity signature): ++ (5% ≤ ++ <25%)
- AX: anxiolytic (probability of activity signature): ++ (5% ≤ ++ <25%)
- CE: cognitive enhancer (probability of activity signature): + (LOQ ≤ + <5%)
- DP: anti-depressant (probability of activity signature): ++ (5% ≤ ++ <25%)
- MS: mood stabilizer (probability of activity signature): + (LOQ ≤ + <5%)
- PS: anti-psychotic (probability of activity signature): + (LOQ ≤ + <5%)
- SD: sedative hypnotic (probability of activity signature): ++ (5% ≤ ++ <25%)
- UN: uncharacterized CNS activity (probability of activity signature): +++ (25% ≤ +++ <50%)

SMILES: Cc1ccc2c(c1)COCC2N.Cl (centres unmarked) [Example 4]
- minimal effective dose [2]: 10 to 30 mg/kg
- AD: ADHD (probability of activity signature): + (LOQ ≤ + <5%)
- AG: analgesic (probability of activity signature): ++ (5% ≤ ++ <25%)
- AX: anxiolytic (probability of activity signature): +++ (25% ≤ +++ <50%)
- CE: cognitive enhancer (probability of activity signature): ++ (5% ≤ ++ <25%)
- DP: anti-depressant (probability of activity signature): ++ (5% ≤ ++ <25%)
- MS: mood stabilizer (probability of activity signature): + (LOQ ≤ + <5%)
- PS: anti-psychotic (probability of activity signature): ++ (5% ≤ ++ <25%)
- SD: sedative hypnotic (probability of activity signature): ++ (5% ≤ ++ <25%)
- UN: uncharacterized CNS activity (probability of activity signature): + (LOQ ≤ + <5%)
